Source: ChEMBL document CHEMBL1141564, “Meriolins (3-(pyrimidin-4-yl)-7-azaindoles): synthesis, kinase inhibitory activity, cellular effects, and structure of a CDK2/cyclin A/meriolin complex” (J Med Chem, 2008)

Assays:
[1] = Inhibition of pig GSK-3-alpha/GSK-3beta; design: species or system Sus scrofa
[2] = Inhibition of starfish oocyte CDK1/cyclin B; design: species or system Marthasterias glacialis
[3] = molecular target: Cyclin-dependent kinase 2/cyclin A (Homo sapiens, UniProt P24941); assay: Inhibition of human recombinant CDK2/cyclin A expressed in insect cells
[4] = molecular target: Cyclin-dependent kinase 5/CDK5 activator 1 (Homo sapiens, UniProt Q00535); assay: Inhibition of recombinant GST-CDK5/p25 expressed in Escherichia coli
Cyclin-dependent kinase 5/CDK5 activator 1, sequence (Q00535 whole entry): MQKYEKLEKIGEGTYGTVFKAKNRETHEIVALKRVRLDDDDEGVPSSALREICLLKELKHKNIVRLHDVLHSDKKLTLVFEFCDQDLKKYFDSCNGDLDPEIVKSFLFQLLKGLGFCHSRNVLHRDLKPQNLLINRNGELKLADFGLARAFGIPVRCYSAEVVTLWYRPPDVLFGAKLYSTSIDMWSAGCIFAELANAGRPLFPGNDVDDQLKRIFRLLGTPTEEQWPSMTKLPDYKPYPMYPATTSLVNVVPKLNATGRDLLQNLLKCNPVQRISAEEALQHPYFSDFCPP
Cyclin-dependent kinase 5/CDK5 activator 1, sequence (Q15078 whole entry, further chain): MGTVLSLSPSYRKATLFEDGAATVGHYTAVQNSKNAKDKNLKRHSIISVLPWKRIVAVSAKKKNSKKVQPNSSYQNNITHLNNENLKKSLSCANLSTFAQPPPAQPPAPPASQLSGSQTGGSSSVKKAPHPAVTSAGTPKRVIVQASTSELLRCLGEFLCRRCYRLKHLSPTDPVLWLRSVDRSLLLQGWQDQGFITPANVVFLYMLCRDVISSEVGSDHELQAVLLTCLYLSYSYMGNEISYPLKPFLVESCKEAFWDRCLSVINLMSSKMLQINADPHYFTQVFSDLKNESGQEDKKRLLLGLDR

[5] = molecular target: CDK9/cyclin T1 (Homo sapiens, UniProt P50750); assay: Inhibition of human recombinant CDK9/cyclin T expressed in insect cells
CDK9/cyclin T1, sequence (O60563 whole entry): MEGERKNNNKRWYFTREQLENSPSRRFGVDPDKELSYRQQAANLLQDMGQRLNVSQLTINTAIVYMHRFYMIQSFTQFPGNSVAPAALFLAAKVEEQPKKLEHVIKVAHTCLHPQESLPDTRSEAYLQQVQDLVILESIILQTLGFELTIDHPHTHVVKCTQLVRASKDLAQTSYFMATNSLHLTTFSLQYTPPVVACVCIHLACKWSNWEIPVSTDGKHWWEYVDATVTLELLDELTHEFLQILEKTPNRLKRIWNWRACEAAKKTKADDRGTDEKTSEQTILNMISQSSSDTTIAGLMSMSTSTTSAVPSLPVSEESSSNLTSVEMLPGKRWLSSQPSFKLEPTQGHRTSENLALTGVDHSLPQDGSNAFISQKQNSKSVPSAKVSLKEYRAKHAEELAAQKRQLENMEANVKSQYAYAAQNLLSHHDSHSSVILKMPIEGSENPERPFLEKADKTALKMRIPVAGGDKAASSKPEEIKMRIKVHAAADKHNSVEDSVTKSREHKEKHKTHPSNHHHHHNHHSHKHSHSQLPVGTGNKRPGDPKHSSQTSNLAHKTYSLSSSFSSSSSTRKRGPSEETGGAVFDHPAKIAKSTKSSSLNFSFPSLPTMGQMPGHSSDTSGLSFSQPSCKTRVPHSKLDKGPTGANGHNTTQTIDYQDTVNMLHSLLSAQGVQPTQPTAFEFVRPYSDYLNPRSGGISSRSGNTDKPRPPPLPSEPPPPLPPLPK
CDK9/cyclin T1, sequence (P50750 whole entry): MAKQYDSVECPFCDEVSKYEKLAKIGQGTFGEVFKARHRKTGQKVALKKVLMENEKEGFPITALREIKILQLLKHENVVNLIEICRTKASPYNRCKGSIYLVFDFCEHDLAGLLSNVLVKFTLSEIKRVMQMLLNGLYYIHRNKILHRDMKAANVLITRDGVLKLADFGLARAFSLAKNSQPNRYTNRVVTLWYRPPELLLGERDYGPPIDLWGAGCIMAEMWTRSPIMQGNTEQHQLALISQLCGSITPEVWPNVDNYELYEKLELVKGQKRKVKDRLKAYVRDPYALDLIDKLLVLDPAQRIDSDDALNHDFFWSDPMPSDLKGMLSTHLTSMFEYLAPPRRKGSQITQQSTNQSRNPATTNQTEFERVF

[6] = Inhibition of pig CK1delta/CK1epsilon; design: species or system Sus scrofa
[7] = system: SH-SY5Y; assay: cells; conditions: Homo sapiens, 48 h
Description: Survival of human SHSY5Y cells after 48 hrs by MTS reduction assay

[8] = system: HEK293; assay: cells; conditions: Homo sapiens, HEK293, 48 h
Description: Survival of human HEK293 cells after 48 hrs by MTS reduction assay

[9] = system: GBM; assay: cells; conditions: Homo sapiens, 48 h
Description: Survival of human GBM cells after 48 hrs by neutral red reduction assay

[10] = system: KMS-11; assay: cells; conditions: Homo sapiens, KMS-11, 48 h
Description: Survival of human KMS11 cells after 48 hrs by neutral red reduction assay

[11] = system: LS174T; assay: cells; conditions: Homo sapiens, 48 h
Description: Survival of human LS174T cells after 48 hrs by MTS reduction assay

[12] = molecular target: Dual specificity tyrosine-phosphorylation-regulated kinase 1A (Rattus norvegicus, UniProt Q63470); assay: Inhibition of rat recombinant GST-DYRK1A expressed in Escherichia coli
[13] = system: HCT-116; assay: Antiproliferative activity against human HCT116 cells after 5 days; assay type: functional, cell-based; conditions: HCT-116, 120 h
[14] = system: HCT-116; assay: Antiproliferative activity against human HCT116 cells assessed as reduction in diameter of spheroids at 1 uM after 5 days; assay type: functional

Structure (SMILES) | IC50 [1] [nM] | IC50 [3] [nM] | IC50 [4] [nM] | IC50 [5] [nM] | IC50 [6] [nM] | IC50 [7] [nM] | IC50 [9] [nM] | IC50 [10] [nM] | IC50 [11] [nM] | IC50 [12] [nM] | IC50 [13] [nM] | IC50 [2] [nM] | IC50 [8] [nM] | Activity [14] [um]
Nc1nccc(-c2c[nH]c3nc(Br)ccc23)n1 | 30000 | 1300 | 680 | 1000 |  | 43000 | > 20000 | > 15000 | > 30000 | 300 |  | 2200 | > 100000 | 
COc1ccnc2[nH]cc(-c3ccncn3)c12 | 1100 | 800 | 1300 | 220 | 600 | 10200 | 10000 | 10000 | 10000 |  |  |  | 35500 | 
Oc1ccnc2[nH]cc(-c3ccncn3)c12 | 1800 | 700 | 700 | 250 |  | 28000 | > 20000 | > 15000 | 23500 |  |  |  | 84000 | 
Nc1nccc(-c2c[nH]c3ncccc23)n1 [MERIOLIN 1] |  |  | 510 | 26 |  | 670 | 1380 | 1270 | 1500 |  |  |  | 2200 | 
Cn1cc(-c2ccnc(N)n2)c2c(O)ccnc21 [MERIOLIN 8] | 4600 | 1800 | 5500 | 1200 | 2300 | > 30000 | > 20000 | > 20000 | > 30000 |  |  |  | > 30000 | 
COc1ccnc2c1c(-c1ccnc(N)n1)cn2C [MERIOLIN 9] |  |  | 73000 |  |  |  |  |  |  |  |  | 25000 |  | 

Further lines, with some results ahead:

IC50 [1] [nM] | IC50 [3] [nM] | IC50 [4] [nM] | IC50 [5] [nM] | IC50 [6] [nM] | IC50 [7] [nM] | IC50 [9] [nM] | IC50 [10] [nM] | IC50 [11] [nM] | IC50 [12] [nM] | IC50 [13] [nM] | Structure (SMILES) | IC50 [2] [nM] | IC50 [8] [nM] | Activity [14] [um]
7000 | 2100 | 2300 | 1100 | 600 | > 100000 | > 20000 | > 20000 | > 30000 |  |  | COc1ccnc2[nH]cc(-c3ccnc(SC)n3)c12 | 1800 | 66000 | 
2000 | 60 | 230 | 50 | 3000 | 1920 | 10000 | 7500 | > 10000 |  |  | Nc1nccc(-c2c[nH]c3nccc(Cl)c23)n1 | 240 | 10800 | 
400 | 18 | 50 | 18 |  | 410 | 1210 | 600 | 1060 |  |  | Nc1nccc(-c2c[nH]c3nccc(O)c23)n1 [MERIOLIN 2] | 57 | 960 | 
230 | 11 | 170 | 6 | 200 | 73 | 140 | 120 | 130 |  | 63 | COc1ccnc2[nH]cc(-c3ccnc(N)n3)c12 [MERIOLIN 3] | 170 | 240 | 720
30 | 7 | 5 | 7 | 100 | 81 | 130 | 60 | 100 |  |  | CCOc1ccnc2[nH]cc(-c3ccnc(N)n3)c12 [MERIOLIN 4] | 10 | 220 | 
25 | 3 | 3 | 5.6 | 200 | 26 | 80 | 40 | 47 |  |  | CCCOc1ccnc2[nH]cc(-c3ccnc(N)n3)c12 [MERIOLIN 5] | 7 | 85 | 
21 |  | 3 | 5.6 | 140 |  | 80 |  | 60 |  |  | CC(C)Oc1ccnc2[nH]cc(-c3ccnc(N)n3)c12 [MERIOLIN 6] | 8 | 89 | 
63000 | > 10000 | 14000 | 5300 | 100000 | > 100000 | > 20000 | > 20000 | > 30000 | > 10000 |  | COCCOc1ccnc2[nH]cc(-c3ccnc(N)n3)c12 [MERIOLIN 7] | 35000 | > 100000 | 
